# Test results: patent US20230348467A1, “Heteroaryl Derivative, Preparation Method Therefor, And Use Thereof” (Zhejiang Hisun Pharmaceutical Co., Ltd., priority 2020, published 2023)
# What was measured:
# [1] = test system: NCI-H358 cells (containing KRAS G12C mutation); assay: Inhibition of NCI-H358 cell proliferation (CellTiter-Glo); assay type: cell-based; settings: Homo sapiens, NCI-H358, 120 h, read-out: IC50(nM)/NCI-H358
# Method: (§1) The following method was used to determine the effects of the compounds of the present invention on NCI-H358 cell proliferation. NCI-H358 cells (containing KRAS G12C mutation) were purchased from Cell Resource Center of Shanghai Institutes for Biological Sciences, Chinese Academy of Sciences, and cultured in RPMI 1640 mediums containing 10% fetal bovine serum, 100 U penicillin, 100 μg/mL streptomycin and 1 mM Sodium Pyruvate. The activities of the cells were determined by CellTiter-Glo® Luminescent Cell Viability Assay kit (Promega, article number: G7573).
# (§2) The experimental method was operated according to the steps in the kit instruction, and was briefly described as follows: test compounds were first dissolved in DMSO to prepare storage solutions of 10 mM, and then diluted in mediums, prepared as test samples. The final concentrations of the test compounds were 10,000 nM to 1.52 nM. The cells in logarithmic phase were inoculated in a 96-well cell culture plate with 1,000 cells per well, after cultured overnight in 5% CO2 incubator at 37° C., the test compounds were added to the incubator to continue the culture for 120 hours. After the culture, 50 μL of CellTiter-Glo detection solution was added to each well, shaken for 5 minutes, and then stood for 10 minutes. Then, a Luminescence mode was used to read the luminescence values of each well of the samples on a microplate reader. Compared with the numerical value of the control group (0.3% DMSO), the percentage inhibition rates of the compounds at each concentration were calculated, and the IC50 values of the compounds inhibiting cell proliferation were obtained by performing nonlinear regression analysis with logarithmic values of the compound concentration—inhibition rate by GraphPad Prism 5 software, which was shown in Table 3.
# [2] = test system: NCI-H23 cells (containing KRAS G12C mutation); assay: Inhibition of NCI-H23 cell proliferation (CellTiter-Glo); assay type: cell-based; settings: Homo sapiens, 120 hours culture
# Method: as §1, with “NCI-H23” for “NCI-H358”
# as §2, with “value of a control group” for “value of the control group”, “in Table 2.” for “in Table 3.”
# [3] = biological target: recombinant human full-length SHP2 (Homo sapiens (Human), UniProt Q06124); assay: Allosteric inhibition of full-length SHP2 enzyme (DiFMUP fluorescence); assay type: biochemical; settings: full-length SHP2 0.5 nM, activating peptide 0.5 uM, DiFMUP substrate
# Chain of recombinant human full-length SHP2 (Q06124 whole entry): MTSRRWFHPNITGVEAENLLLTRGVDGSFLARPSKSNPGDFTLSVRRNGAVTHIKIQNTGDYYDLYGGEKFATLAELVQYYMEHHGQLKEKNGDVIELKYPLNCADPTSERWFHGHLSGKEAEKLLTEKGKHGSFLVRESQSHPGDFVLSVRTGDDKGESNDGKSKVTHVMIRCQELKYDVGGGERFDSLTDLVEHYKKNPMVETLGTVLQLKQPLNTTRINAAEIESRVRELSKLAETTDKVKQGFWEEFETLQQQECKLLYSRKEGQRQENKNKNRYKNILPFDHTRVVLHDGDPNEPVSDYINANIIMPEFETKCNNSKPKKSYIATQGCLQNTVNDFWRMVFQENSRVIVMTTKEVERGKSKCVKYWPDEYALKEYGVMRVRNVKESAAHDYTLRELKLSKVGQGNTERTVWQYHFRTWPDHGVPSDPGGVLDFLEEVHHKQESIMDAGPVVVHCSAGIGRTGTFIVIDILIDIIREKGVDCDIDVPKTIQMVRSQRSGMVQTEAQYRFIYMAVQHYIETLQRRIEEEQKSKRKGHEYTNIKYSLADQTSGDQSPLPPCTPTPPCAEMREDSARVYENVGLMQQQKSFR
# Excerpt: The following method was used to determine the inhibition degrees of the compounds of the present invention on the activity of recombinant human full-length SHP2 in vitro. SHP2 was allosterically activated by the binding of di-tyrosyl-phosphorylated peptide to a Src homologous 2(SH2) domain of SHP2. An activation step of the latter leads to the self-inhibitory interface release of SHP2, and then activates SHP2 protein tyrosine phosphatase (PTP), which might be used for substrate recognition and reaction catalysis.
# The experimental process was briefly described as follows: Test compounds were first dissolved in DMSO to prepare storage solutions. […] Then, the compounds to be tested were added in a concentration range of 0.00004-10 uM and incubated at 25° C. for 60 minutes. Then DiFMUP (Thermo, D6567) was added in the reaction and incubated at 25° C. for 30 minutes. After incubation, readings were taken using a microplate reader (BMG) with excitation and emission wavelengths of 340 nm and 450 nm, respectively.
# [4] = Pharmacokinetic test in ICR mice, intragastric (Test Example 4); assay type: in vivo; settings: PO
# Excerpt: ICR mice were used as test animals, and LC/MS/MS methods was used to determine the drug concentrations at different moments in plasma of mice administered by intragastric injection with the compound 5 and the compound 6 of the present invention, and to study the pharmacokinetic characteristics of the compounds of the present invention in mice. An appropriate amount of drug was weighed, added with an appropriate amount of sodium carboxymethylcellulose (CMC-Na, containing 0.5% Tween 80), vortexed, and ultrasonically prepared into 1 mg/kg suspension. The ICR mice in the intragastric group of each compound to be tested (9 mice in each group) were fasted overnight and then administered by intragastric injection (PO, […], and administration volume of 10 mL/kg), and ate 4 hours after administration. About 0.2 mL of blood was collected via jugular vein before administration and 0.083 hour, 0.25 hour, 0.5 hour, 1 hour, 2 hours, 4 hours, 8 hours and 24 hours after administration, and heparin sodium was used for anticoagulation. The collected blood samples were placed on ice, and plasma was separated by centrifugation (centrifugation condition: 1,500 g, 10 minutes). The collected plasma samples were stored at −40° C. to −20° C. before analysis. LC-MS/MS was used to determine the contents of the compounds to be tested in mouse plasma after intragastric administration.
# [5] = test system: NCI-H358 subcutaneous transplanted tumors; assay: Growth inhibition of subcutaneous transplanted NCI-H358 tumors in BALB/c nude mice; assay type: in vivo
# Method: To evaluate antitumor effects and safety of the compounds of Example 27 in an animal model of BALB/c nude mice with subcutaneous transplanted NCI-H358 cell lines
# An approximate amount of the compound of Example 27 was weighed, added with an approximate amount of DMA (dimethylacetamide) to fully dissolve the compound, then added with Solutol HS 15 and Saline (DMA: Solutol HS 15: Saline=5:10:85 (v/v/v)) in turn, and mixed evenly by vortex, and the configuration concentration was 3 mg/mL.
# BALB/c nude mice, female, 6-7 weeks old (the age of mice when tumor cells were inoculated), 12 mice, purchased from Jiangsu GemPharmatech.
# NCI-H358 cells were cultured in RPMI 1640 mediums containing 10% fetal bovine serum, 1% sodium pyruvate and 1% glutamine. NCI-H358 cells in exponential growth period were collected, and resuspend in PBS to a suitable concentration for subcutaneous tumor inoculation in nude mice.
# 12 female BALB/c nude mice were subcutaneously inoculated with about 3×10^6 NCI-H358 cells on the right sides of their backs. When the average volume of tumors reaches about 100 mm^3 to 200 mm^3, the mice were randomly divided according to tumor sizes with 6 mice in each group. The animals in each group were given the subjects once a day (qd) according to the animal body weights at a fixed time every day according to the table below, administered orally (po) for 10 consecutive days, and the daily body weights were recorded.
# After tumor inoculation, routine monitoring included the effects of tumor growth and treatment on the normal behaviors of the animals, specifically the mobility, feeding and drinking, weight gain or loss, eyes, coat and other abnormalities of the experimental animals.
# (1) TV (tumor volume)=½×a×b^2, wherein a and b represent the length and the width of the tumor respectively;
# (2) RTV (relative tumor volume)=Vt/V0, wherein V0 is the tumor volume measured at the time of grouping administration (i.e., d0), and Vt is the tumor volume at each measurement;
# (3) Relative tumor proliferation rate T/C (%)=TRTV/CRTV×100%, wherein TRTV is the RTV of the treatment group and CRTV is the RTV of the control group;
# [6] = Pharmacokinetic test of mice, intragastric (Test Example 5); assay type: in vivo; settings: ICR mice, PO, 5 mg/kg
# Excerpt: ICR mice were used as test animals, and LC/MS/MS methods was used to determine the drug concentrations at different moments in plasma of mice administered by intragastric injectiion with the compound 27 of the present invention, and to study the pharmacokinetic characteristics of the compound of the present invention in mice. An appropriate amount of drug compound 27 was weighed, added with an appropriate amount of sodium carboxymethylcellulose (CMC-Na, containing 0.5% Tween 80), vortexed, and ultrasonically prepared into 0.5 mg/kg suspension. The ICR mice in the intragastric group of each compound to be tested (9 mice in each group) were fasted overnight and then administered by intragastric injection (PO, administration dose of the compound 27 was 5 mg/kg, and administration volume of the compound 27 was 10 mL/kg), and ate 4 hours after administration. About 0.2 mL of blood was collected via jugular vein before administration and 0.083 hour, 0.25 hour, 0.5 hour, 1 hour, 2 hours, 4 hours, 8 hours, 12 hours and 24 hours after administration, and heparin sodium was used for anticoagulation. The collected blood samples were placed on ice, and plasma was separated by centrifugation (centrifugation condition: 1,500 g, 10 minutes). The collected plasma samples were stored at −40° C. to −20° C. before analysis. LC-MS/MS was used to determine the content of the compound to be tested in mouse plasma after intragastric administration.
# [7] = Day 10, 30 mg/kg po qd for 10 days
SMILES,IC50 [1] [nM],IC50 [2] [nM],IC50 [3] [nM],Pharmacokinetic properties (conclusion in words) [4],"AUC(0-inf) ([4]; mouse, 10 mg/kg per table (method text says 1 mg/kg), plasma, read-out: Area under curve AUC0-∞) [ng·h/mL]","Cmax ([4]; mouse, 10 mg/kg per table (method text says 1 mg/kg), plasma, read-out: Blood concentration Cmax) [ng/mL]",Growth inhibition effect on NCI-H358 tumor-bearing mice (in words) ([5]; 30 mg/kg),Body weight change ([5]; 30 mg/kg po qd for 10 days),"Tumor volume (mm^3, mean value ± standard error) Day 0 ([5]; Day 0 (at grouping), 30 mg/kg po qd group) [mm^3]","TGI % Day 10 [5, 7] [%]","Tumor volume (mm^3, mean value ± standard error) Day 10 [5, 7] [mm^3]",Pharmacokinetic properties (conclusion in words) [6],"AUC(0-inf) ([6]; mouse, plasma, read-out: Area under curve AUC0-∞) [ng·h/mL]","Cmax ([6]; mouse, plasma, read-out: Blood concentration Cmax) [ng/mL]","Tmax ([6]; mouse, plasma, read-out: Peak time Tmax) [h]"
"NC(=O)c1nc(N2CCC(N)(c3ccccc3)CC2)nc2[nH]nc(-c3cccc(Cl)c3Cl)c12 [Example 6, 6-(4-amino-4-phenylpiperidin-1-yl)-3-(2,3-dichlorophenyl)-1H-pyrazolo[3,4-d]pyrimidine-4-carboxamide]",19,61,4,good pharmacokinetic properties,18500,1190,,,,,,,,,
"NC(=O)c1nc(N2CCC(N)(c3ccccc3)CC2)nc2[nH]nc(-c3ccnc(Cl)c3Cl)c12 [Example 27, 6-(4-amino-4-phenylpiperidin-1-yl)-3-(2,3-dichloropyridin-4-yl)-1H-pyrazolo[3,4-d]pyrimidine-4-carboxamide]",37,167,7,,,,obvious growth inhibition effects,no obvious change in body weight,138 ± 14,55.6,155 ± 22,good pharmacokinetic properties,2720,285,8
